# Measurements reported in patent US20230241190A1, “VACCINE FOR TREATING MULTIPLE SCLEROSIS” (RESEARCH & BUSINESS FOUNDATION SUNGKYUNKWAN UNIVERSITY, priority 2022, published 2023).
# Tested on: EAE (experimental autoimmune encephalomyelitis)
# Test: EAE semi-therapeutic vaccine study (clinical score, EAE-free mice)
# Type: in vivo, C57BL/6 mice
# Details: intravenous injection on days 4, 7 and 10 after EAE induction (semi-therapeutics)
# Experimental: EAE was induced in female C57BL/6 mice aged 10-11 weeks using a kit (EK-2110) from Hooke Laboratory (Lawrence, Mass., USA). Briefly, on day 0, mice were subcutaneously injected with an emulsion containing MOG35-55 peptide and complete Freund's adjuvant (CFA), in the lower and upper back. After 2 and 24 h, the animals were intraperitoneally injected with pertussis toxin (PTX) according to the manufacturer's instructions. EAE clinical score was evaluated after day 8, post-EAE induction based on the standard protocol in a blinded manner (0, no obvious symptoms; 0.5, tip of tail was limp; 1, limp tail; 1.5, limp tail and hind leg inhibition; 2, limp tail and weakness of hind legs; 2.5, limp tail and dragging of hind legs; 3, complete paralysis of hind legs; 3.5, complete paralysis of hind legs and hind legs together on one side of the body; 4, full hind leg and partial front leg paralysis; 4.5 full hind leg and partial front leg paralysis, no movement). Paralyzed mice were given easier access to water and food. Mice were euthanized if any of the following conditions were observed unable to eat, unresponsive when scored as 4, when scored as 4 for two consecutive days, both hind limbs and forelimbs were completely paralyzed. […]
substance,measurement,value
myelin oligodendrocyte glycoprotein (MOG) peptide 35-55 [soluble MOG],EAE progression / development (clinical score),slightly delayed EAE progression
